Laboratory results: patent US20020155518A1, “Method of detecting compounds that control fungal diseases via effects on sporulation” (priority 2000, published 2002)

Tests used:
Aspergillus nidulans [1] = test: High-throughput screen for antisporulant activity, direct application with a replicator; format: cell-based; details: direct application to the medium using a replicator; 2 days at 37° C.
Text: For high-throughput screens, 245mm square bioassay dishes were poured and the medium containing the spore inoculum was allowed to solidify prior to application of test samples. Test samples, representing a broad spectrum of diverse chemical structures, were applied to the surface of the agar medium either by hand, using a replicator, or by robotic application. Each screen included a positive control treatment (e.g., 5 ∝g of one of the active benzophenones described elsewhere herein) that provided a positive response. Plates were incubated for 2 days at 37° C. Positives were initially identified by the presence of a discolored zone around the test sample. The positives were confirmed by retest followed by observation under a low power microscope (×20 magnification).
7000 compounds with diverse structures have been tested using the such a highthroughput screen. The compounds were tested by direct application to the medium using a replicator.

Aspergillus nidulans [2] = test: Sporulation assay, paper disc diffusion on PDA seeded with spores; format: cell-based, Aspergillus nidulans strain 003 (ATCC 36321)
[3] = tested on: Apple Scab (Venturia inaequalis); test: Protectant foliar spray test against apple scab; format: in vivo; details: apple seedlings, foliar spray before inoculation; vs untreated inoculated controls; further: key: '+++' =high control; '++' =moderate control; '+' =low control; '0'=no control
[4] = tested on: Wheat Powdery Mildew (Blumeria [Erysiphe] graminis f.sp. tritici); details: in vivo; further: key: '+++' =high control; '++' =moderate control; '+' =low control; '0'=no control
[5] = tested on: Rice Blast (Magnaporthe grisea); format: in vivo; details: foliar spray before inoculation, vs untreated inoculated controls
[6] = tested on: Leptosphaeria (Septoria) nodorum; test: Protectant foliar spray test against wheat L. nodorum blotch; format: in vivo; details: wheat, foliar spray before inoculation; vs untreated inoculated controls; further: key: '+++' =high control; '++' =moderate control; '+' =low control; '0'=no control

`CC(C)(C)CC(C)(C)c1ccc(C(=O)O)cc1` [A, 4-(1,1,3,3-tetramethylbutyl)benzoic acid] was tested. Which anti-sporulation activity (Aspergillus nidulans [1]) did it give?
The anti-sporulation activity was “tested positive”.

`CC1=C(C(=O)Nc2ccccc2)SCCO1` [Carboxin] was tested. Which Active (Aspergillus nidulans [2]) did it give?
Its Active is “No”.

And the Inactive (Aspergillus nidulans [2])?
Its Inactive is “Yes”.

What about the Moderately active (Aspergillus nidulans [2]) of the same compound?
Its Moderately active is “No”.

Which Active (Aspergillus nidulans [2]) does the source give for `C[C@@H]([C@H](N)C(=O)N[C@H](C(=O)O)[C@H]1O[C@@H](n2ccc(=O)[nH]c2=O)[C@H](O)[C@@H]1O)[C@H](O)c1ccc(O)cn1` [Nikkomycin] here?
The Active was “No”.

And the Inactive (Aspergillus nidulans [2])?
Its Inactive is “Yes”.

What about the Moderately active (Aspergillus nidulans [2]) of the same compound?
The Moderately active was “No”.

Which results are given for `COc1cc(C)c(C(=O)c2c(C)ccc3ccccc23)c(OCc2ccccc2F)c1OC` [X, [3,4-dimethoxy-6-methyl-2-[(2-fluorophenyl)methoxy]phenyl](2-methyl-1-naphthalenyl)methanone]?
Level of Plant Disease Control, Apple Scab [3]: 0; Level of Plant Disease Control, Wheat Powdery Mildew [4]: +++; Level of Plant Disease Control, Rice Blast [5]: 0; Level of Plant Disease Control, Wheat L. nodorum [6]: 0

Which “Level of Plant Disease Control, Apple Scab” value [3] does the source give for `CCCOc1c(OC)cc(C)c(C(=O)c2c(OC)ccc(Br)c2C)c1OCc1ccccc1` [Y, (3-bromo-6-methoxy-2-methylphenyl)[4-methoxy-6-methyl-2-(phenylmethoxy)-3-propoxyphenyl]methanone] here?
The value was 0.

What about the “Level of Plant Disease Control, Wheat Powdery Mildew” value [4] of the same compound?
Its value is “+++”.

And the “Level of Plant Disease Control, Rice Blast” value [5]?
The value was 0.

And the “Level of Plant Disease Control, Wheat L. nodorum” value [6]?
The value was 0.
